Test results from patent publication US20250255867A1 (Kadmon Corporation, LLC, priority 2022, published 2025).

Test system: subjects with BOS
Assay: Example 3 combined analysis: lung-specific NIH response in BOS
Type: in vivo, human
Experimental: Subjects enrolled in the clinical studies described in Examples 1 and 2 served as the population for the combined analysis.
Patients with BOS were identified as: 1) % predicted forced expiratory volume in 1 second (% FEV1) of £79% at enrollment, and 2) clinician attribution of lung disease due to cGVHD.
In Example 1, lung function assessments were conducted at baseline and on Day 1 of each cycle for patients with suspected of known lung involvement. In Example 2, lung function assessments were conducted at baseline and at the time of response assessments: Day 1 of cycles 2-5 and then on Day 1 of every other cycle thereafter.
The severity of cGVHD was graded according to the 2014 NIH Consensus Criteria. […] According to these criteria, a complete response (CR) in the lung is defined as normal % FEV1 after previous involvement or in the absence of PFTs, a NIH lung Symptom Score of 0 after previous involvement. Partial response (PR) in the lung is defined as an increase by 10% predicted absolute value of % FEV1 or in the absence of PFTs, a decrease in NIH Lung Symptom Score by 1 or more points. Progression of lung disease is defined as a decrease by 10% predicted absolute value of % FEV1 or in the absence of PFTs, an increase in NIH Lung Symptom Score by 1 or more points, except 0 to 1.
Baseline characteristics were reported descriptively. Univariable and multivariable logistic regression analysis was performed to investigate clinical factors (listed in Table 1) that were associated with NIH lung response. Correlation analysis was performed to assess correlation among lung response metrics. All testing was two-sided at the significance level of 0.05. All analyses were performed using SAS 9.3 (SAS Institute Inc., Cary, NC), and R v3.5.2 (the CRAN project).

[1] = NIH Lung Score at baseline 1, 30 subjects
[2] = NIH Lung Score at baseline 2, 23 subjects
[3] = NIH Lung Score at baseline 3, 6 subjects

CC(C)NC(=O)COc1cccc(-c2nc(Nc3ccc4[nH]ncc4c3)c3ccccc3n2)c1 [Belumosudil, 2-{3-[4-(1H-indazol-5-ylamino)-2-quinazolinyl]phenoxy}-N-(propan-2-yl) acetamide]
Best ORR for pulmonary cGVHD, NIH response criteria (59 subjects): 32%
PR for pulmonary cGVHD, NIH response criteria (59 subjects): 17%
Lung-specific NIH response, Best ORR [1]: 50%
Lung-specific NIH response, CR rate [1]: 27%
Lung-specific NIH response, PR rate [1]: 23%
Lung-specific NIH response, Best ORR [2]: 17%
Lung-specific NIH response, CR rate [2]: 4%
Lung-specific NIH response, PR rate [2]: 13%
Lung-specific NIH response, Best ORR [3]: 0%
Lung-specific NIH response, CR rate [3]: 0%
Lung-specific NIH response, PR rate [3]: 0%
Lung-specific NIH response, Best ORR (Total, 59 subjects): 32%
Lung-specific NIH response, CR rate (Total, 59 subjects): 15%
Lung-specific NIH response, PR rate (Total, 59 subjects): 17%
Best lung ORR (baseline NIH lung score 1): 50%
Lung CR (baseline NIH lung score 1): 27%
Lung PR (baseline NIH lung score 1): 23%
Best lung ORR (baseline NIH lung score 2): 17%
Lung CR (baseline NIH lung score 2): 4%
Lung PR (baseline NIH lung score 2): 13%
Best ORR for lung cGVHD, NIH response with PFTs alone (in vivo): 24%
CR for lung cGVHD, PFTs alone (in vivo): 10%
PR for lung cGVHD, PFTs alone (in vivo): 14%
Median time to first NIH lung response (range, 3-39): 5 cycles
Median time to best NIH lung response (range, 3-41): 7 cycles
